Patent US20170107407A1, “ADHESIVE COMPOSITION AND POLARIZING PLATE COMPRISING SAME” (DONGWOO FINE-CHEM CO., LTD., priority 2014, published 2017)

Test: Evaluation of solubility in methyl ethyl ketone
Conditions: 1 g compound in 100 g methyl ethyl ketone, shaken 1 hour, left 24 hours at room temperature, visual
Method: Each compound (1 g) listed in Table 1 and methyl ethyl ketone (MEK, 100 g) were added to a 250 ml bottle and covered with a cap to inhibit the volatilization of the solvent.

Row | Solubility | Compound
1 | ∘ | CCCCOCCOCC(=O)[O-].[Na+] [Formula C]
2 | ∘ | CCOCCOCCOCC(=O)[O-].[Na+] [Formula B]
3 | ∘ | CCOCCOCCOCC(=O)[O-].[Li+] [Formula A]
